For the assay, the target named is rat EP4 receptor (Rattus norvegicus, UniProt P43114). In words: Evaluation test of rat EP4 receptor affinity ([3H]PGE2 binding, membrane fraction of HEK-293 cells). Further details: expressed in transfected cells; host or cells: HEK-293 (ATCC CRL-1573), transient. The settings on record: 0.3 nmol/L [3H]PGE2, rat EP4 cell membrane fraction, room temperature 1 hour; read-out: Ki value with respect to the rat EP4 receptor. As to the method: Test Example 1: Evaluation Test of Rat EP4 Receptor Affinity
Sequence of rat EP4 receptor (P43114 whole entry): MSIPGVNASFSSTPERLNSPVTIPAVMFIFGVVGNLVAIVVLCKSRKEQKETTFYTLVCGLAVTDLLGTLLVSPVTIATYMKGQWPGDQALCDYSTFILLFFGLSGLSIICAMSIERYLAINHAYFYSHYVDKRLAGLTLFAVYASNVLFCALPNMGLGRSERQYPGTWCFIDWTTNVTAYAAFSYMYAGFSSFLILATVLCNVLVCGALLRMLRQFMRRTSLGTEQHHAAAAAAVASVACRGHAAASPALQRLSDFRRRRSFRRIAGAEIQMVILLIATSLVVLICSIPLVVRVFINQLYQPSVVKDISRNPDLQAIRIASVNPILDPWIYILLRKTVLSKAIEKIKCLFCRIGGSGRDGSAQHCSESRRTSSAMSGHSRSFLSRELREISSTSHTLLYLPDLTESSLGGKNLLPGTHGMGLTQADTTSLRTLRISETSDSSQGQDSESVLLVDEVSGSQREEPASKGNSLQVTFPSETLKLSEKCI
Construction of Rat EP4 Receptor Expressing Vector:
A rat EP4 receptor gene (GenBank accession No.: NM_032076.1) was transfected into an expression vector pcDNA3.1-V5-His-TOPO (Invitrogen Inc.).
Transient Expression of Rat EP4 Receptor:
The expression vector of a rat EP4 receptor was transfected into an HEK-293 cell (ATCC No.: CRL-1573). The transfection was carried out according to an appended instruction, using Lipofectoamine (registered trademark) 2000 reagent (Invitrogen Inc.). After the transfection, the cells were cultured in an α-MEM culture medium for 20 to 24 hours.
Preparation of Membrane Fraction:
The culture medium was removed by aspiration, 10 mL of cooled phosphate buffered saline (PBS) was added thereto per 15 cm dish, and the cells were scraped using a cell scraper (Sumitomo Bakelite). […]
[^3H]PGE2 and a cell membrane fraction were diluted with an assay buffer (50 mmol/L HEPES-NaOH, 10 mmol/L MgCl2, pH 7.5), and the test compound and unlabeled PGE2 (Cayman) were diluted with DMSO and the assay buffer. […] The radioactivity was measured using a TopCount (Perkin Elmer). […] The specific binding amount was determined by subtracting the non-specific binding amount from the total binding amount. The Ki value was calculated according to a standard method.

pKi: −log10 of the molar value.

Regarding `Cc1cc(C(=O)N[C@@H](C)c2ccc(C(=O)O)cc2)n(Cc2ccc(Cl)cc2)n1` [Example 205 in Patent Document 1, reference compound], the pKi is 6.85.

The values above are taken from US10106523B2, “Amide compound” (ASTELLAS PHARMA INC., priority 2014, dated 2018).
